Reference: PMC11073699, “Odorant receptors for floral- and plant-derived volatiles in the yellow fever mosquito, Aedes aegypti (Diptera: Culicidae)” (PLOS ONE, 2024)
Where “and” joins values, the source holds several entries; their conditions need not be identical. Equal values may be shown once.

How the values were obtained:
Assay type in all cases: cell-based
[1] = biological target: T1, AaegOR13 (Aedes aegypti, UniProt Q16Z13); assay: Two-electrode voltage clamp of Xenopus laevis oocytes expressing AaegOR13/Orco (blends, unitary compounds, concentration-response); details: unitary compounds; for Normalized response, unitary compounds, Average: average of oocytes 1-7; for Raw data (Responses in nA), unitary compounds of Indoles 1, Alcohols 1, Alcohols 3 / Normalized response, unitary compounds of Indoles 1, Alcohols 1, Alcohols 3: individual oocytes 1-7; for Normalized response, unitary compounds of Indoles 1, Alcohols 1, Alcohols 3: normalized per oocyte
T1 sequence (Q16Z13 1-389): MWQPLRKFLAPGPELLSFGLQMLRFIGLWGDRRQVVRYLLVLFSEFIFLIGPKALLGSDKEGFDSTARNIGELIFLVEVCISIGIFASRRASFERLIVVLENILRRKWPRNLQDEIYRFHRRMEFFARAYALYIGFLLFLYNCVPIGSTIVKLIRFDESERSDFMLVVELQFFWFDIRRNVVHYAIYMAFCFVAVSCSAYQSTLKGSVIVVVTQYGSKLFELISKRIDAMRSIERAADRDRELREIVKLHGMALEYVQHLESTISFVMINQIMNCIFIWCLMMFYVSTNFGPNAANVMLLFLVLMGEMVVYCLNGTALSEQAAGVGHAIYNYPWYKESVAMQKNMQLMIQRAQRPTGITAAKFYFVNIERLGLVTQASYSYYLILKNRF
T1 sequence (Q178U6 1-478 partner): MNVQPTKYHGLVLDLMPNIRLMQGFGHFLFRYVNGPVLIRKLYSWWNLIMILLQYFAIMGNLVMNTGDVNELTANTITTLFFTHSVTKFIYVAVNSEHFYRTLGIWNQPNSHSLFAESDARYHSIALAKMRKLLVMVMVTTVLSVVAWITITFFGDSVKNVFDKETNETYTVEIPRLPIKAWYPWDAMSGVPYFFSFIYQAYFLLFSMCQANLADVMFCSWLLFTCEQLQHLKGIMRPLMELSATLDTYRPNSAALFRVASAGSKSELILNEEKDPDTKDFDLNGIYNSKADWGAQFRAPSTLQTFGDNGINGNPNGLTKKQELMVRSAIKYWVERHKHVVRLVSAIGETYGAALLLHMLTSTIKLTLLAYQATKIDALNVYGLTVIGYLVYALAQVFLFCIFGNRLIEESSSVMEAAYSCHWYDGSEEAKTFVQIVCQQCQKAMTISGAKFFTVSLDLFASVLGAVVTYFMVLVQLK
Source text: (§1) The coding regions of ten AaegOR genes of interest (S3 File) and AaegOrco were synthesized by Twist Bioscience (San Francisco, CA, USA) and cloned into the pENTR plasmid. The Gateway LR directional cloning system (Invitrogen Corp., Carlsbad, CA, USA) was utilized to subclone AaegOR coding regions into the pSP64t-RFA oocyte expression plasmid. Plasmids were purified using the GeneJet Plasmid Miniprep Kit (ThermoFisher Scientific, Waltham, MA, USA). Purified plasmids were sequenced in both directions to confirm coding regions.
(§2) Chemical compounds (S6 File) used in the deorphanization of AaegORs were purchased from Acros Organics (Morris, NJ, USA), Alfa Aesar (Ward Hill, MA, USA), and ThermoFisher Scientific (Waltham, MA, USA) at the highest purity available. Compounds were stored as 1M stocks in 100% DMSO. Serial dilutions of each compound were prepared in 10% DMSO and blended by chemical class.
(§3) pSP64t-RFA: AaegOR clones were linearized using Xbal, and cRNAs were synthesized using the mMESSAGE mMACHINE ® SP6 kit (Life Technologies, Carlsbad, CA, USA). Xenopus laevis stage V-VII oocytes purchased from Xenopus1 (Dexter, MI, USA) were stored at 18°C in Incubation medium (ND96 96 with 5% dialyzed horse serum, 50μg/mL gentamycin, 100μg/mL streptomycin, 100μg/mL penicillin, and 550μg/mL sodium pyruvate). 30nL of cRNA was injected into multiple oocytes using a microinjection syringe pump (World Precision Instruments, Sarasota, FL, USA) maintained at 18°C for 48–72 hrs. Odorant blends were perfused across individual oocytes for 10–15 seconds, held at a resting membrane potential of -80 mV using an OC-725C oocyte clamp (Warner Instruments, LLC, Hamden, CT, USA). Induced currents were measured indirectly using the two-electrode voltage clamp technique (TEVC). Following each stimulus, currents were allowed to return to baseline before further stimulation. Data was captured using the Digidata 1550 B digitizer and PClamp10 software (Molecular Devices, San Jose, CA, USA). Concentration-response curves were generated by perfusing unitary odorants over oocytes at increasing concentrations from [10^-3M] to [10^-9M]. Data were analyzed using GraphPad Prism 8 (GraphPad Software Inc., La Jolla, CA, USA). At least two biological replicates were conducted at each concentration and for each compound. Data for at least seven oocytes responding to each compound was analyzed (S7 File).

[2] = biological target: T2, AaegOR8 (Aedes aegypti, UniProt Q16MN0); assay: Two-electrode voltage clamp of Xenopus laevis oocytes expressing AaegOR8/Orco (blends, unitary compounds, concentration-response); details: Alcohols 2 unitary compounds
T2 sequence (Q16MN0 32-422): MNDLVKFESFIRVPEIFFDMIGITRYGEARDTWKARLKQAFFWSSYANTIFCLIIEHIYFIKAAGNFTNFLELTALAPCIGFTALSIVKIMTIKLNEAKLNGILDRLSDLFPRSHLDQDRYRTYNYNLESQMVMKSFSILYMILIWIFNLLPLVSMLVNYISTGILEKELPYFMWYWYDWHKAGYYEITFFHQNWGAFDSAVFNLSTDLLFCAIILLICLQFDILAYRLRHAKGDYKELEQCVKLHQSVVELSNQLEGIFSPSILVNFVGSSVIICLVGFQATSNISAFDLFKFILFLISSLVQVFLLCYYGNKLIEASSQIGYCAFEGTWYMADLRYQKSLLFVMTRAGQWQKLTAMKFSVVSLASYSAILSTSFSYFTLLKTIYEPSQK
T2 sequence (Q178U6 1-478 partner): T1 sequence (Q178U6 1-478 partner)
Source text: as §1, §2, §3

[3] = biological target: T3, AaegOR6 (Aedes aegypti, UniProt A0A1S4G757); assay: Two-electrode voltage clamp of Xenopus laevis oocytes expressing AaegOR6/Orco (blends, unitary compounds, concentration-response); details: Indoles 2 unitary compounds
T3 sequence (A0A1S4G757 1-398): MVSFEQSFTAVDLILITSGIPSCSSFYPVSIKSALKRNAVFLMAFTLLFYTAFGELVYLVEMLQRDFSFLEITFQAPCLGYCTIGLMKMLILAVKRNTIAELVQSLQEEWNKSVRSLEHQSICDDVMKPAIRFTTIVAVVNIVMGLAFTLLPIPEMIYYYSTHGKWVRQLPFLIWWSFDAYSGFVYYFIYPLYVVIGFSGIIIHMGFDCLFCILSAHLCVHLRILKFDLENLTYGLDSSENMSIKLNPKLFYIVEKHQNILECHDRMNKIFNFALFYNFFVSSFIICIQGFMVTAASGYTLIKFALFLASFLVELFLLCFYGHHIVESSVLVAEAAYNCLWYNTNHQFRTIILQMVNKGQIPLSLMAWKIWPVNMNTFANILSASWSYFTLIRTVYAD
T3 sequence (Q178U6 1-478 partner): T1 sequence (Q178U6 1-478 partner)
Source text: as §1, §2, §3

[4] = biological target: T4, AaegOR71 (Aedes aegypti, UniProt A0A3S7SHD4); assay: Two-electrode voltage clamp of Xenopus laevis oocytes expressing AaegOR71/Orco (blends, unitary compounds, concentration-response); details: Indoles 2 unitary compounds
T4 sequence (A0A3S7SHD4 1-415): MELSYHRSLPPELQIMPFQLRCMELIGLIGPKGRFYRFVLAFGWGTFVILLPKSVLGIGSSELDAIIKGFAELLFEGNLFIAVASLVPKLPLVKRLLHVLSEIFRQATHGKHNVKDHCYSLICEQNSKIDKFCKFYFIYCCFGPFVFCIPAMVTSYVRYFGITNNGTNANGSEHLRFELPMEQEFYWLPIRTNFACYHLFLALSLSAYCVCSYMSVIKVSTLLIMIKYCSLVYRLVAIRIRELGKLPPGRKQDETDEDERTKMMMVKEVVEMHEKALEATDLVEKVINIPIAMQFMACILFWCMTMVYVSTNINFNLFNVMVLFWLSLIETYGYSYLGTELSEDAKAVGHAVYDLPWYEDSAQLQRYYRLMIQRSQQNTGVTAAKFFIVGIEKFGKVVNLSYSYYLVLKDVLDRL
T4 sequence (Q178U6 1-478 partner): T1 sequence (Q178U6 1-478 partner)
Source text: as §1, §2, §3

Compound | Raw data (Responses in nA), unitary compounds of Indoles 1, Alcohols 1, Alcohols 3 [1] | Raw data (Responses in nA) Oocyte 1 [3] | Raw data (Responses in nA) Oocyte 2 [3] | Raw data (Responses in nA) Oocyte 3 [3] | Raw data (Responses in nA) Oocyte 4 [3] | Raw data (Responses in nA) Oocyte 5 [3] | Raw data (Responses in nA) Oocyte 6 [3] | Raw data (Responses in nA) Oocyte 7 [3] | Raw data (Responses in nA) Oocyte 8 [3] | Raw Data (Response in nA) Oocyte 1 [4] | Raw Data (Response in nA) Oocyte 2 [4] | Raw Data (Response in nA) Oocyte 3 [4] | Raw Data (Response in nA) Oocyte 4 [4] | Raw Data (Response in nA) Oocyte 5 [4] | Raw Data (Response in nA) Oocyte 6 [4] | Raw Data (Response in nA) Oocyte 7 [4] | Raw Data (Response in nA) Oocyte 8 [4] | other results
C=CC(C)(O)CCC=C(C)C (single isomer, unassigned; (+)) [(+) Linalool] | 0.0 nA |  |  |  |  |  |  |  |  |  |  |  |  |  |  |  |  | Normalized response, unitary compounds, Average [1]: 0.0; Normalized response, unitary compounds of Indoles 1, Alcohols 1, Alcohols 3 [1]: 0.0
C=CC(C)(O)CCC=C(C)C (single isomer, unassigned; (-)) [(-) Linalool] | 0.0 nA (6×) and 5.0 nA |  |  |  |  |  |  |  |  |  |  |  |  |  |  |  |  | Normalized response, unitary compounds, Average [1]: 0.26; Normalized response, unitary compounds of Indoles 1, Alcohols 1, Alcohols 3 [1]: 0.0 (6×) and 1.8
CC(C)(C)c1ccc(O)cc1 [4-tert-butylphenol] | 10.0 nA and 305.0 nA and 70.0 nA and 85.0 nA and 150.0 nA and 90.0 nA and 55.0 nA |  |  |  |  |  |  |  |  |  |  |  |  |  |  |  |  | 
CC1CCCC2(C)CCCCC12O (stereo not shown) [Geosmin] |  |  |  |  |  |  |  |  |  |  |  |  |  |  |  |  |  | Raw data (Responses in nA) Oocyte 1 ([2]; oocyte 1): 0.0 nA; Raw data (Responses in nA) Oocyte 2 ([2]; oocyte 2): 0.0 nA; Raw data (Responses in nA) Oocyte 3 ([2]; oocyte 3): 0.0 nA; Raw data (Responses in nA) Oocyte 4 ([2]; oocyte 4): 0.0 nA; Raw data (Responses in nA) Oocyte 5 ([2]; oocyte 5): 0.0 nA; Raw data (Responses in nA) Oocyte 6 ([2]; oocyte 6): 0.0 nA; Raw data (Responses in nA) Oocyte 7 ([2]; oocyte 7): 0.0 nA; Raw data (Responses in nA) Oocyte 8 ([2]; oocyte 8): 0.0 nA
c1ccc2ncncc2c1 [Quinazoline] |  | 0.0 nA | 0.0 nA | 0.0 nA | 0.0 nA | 0.0 nA | 10.0 nA | 0.0 nA | 0.0 nA | 70 nA | 440 nA | 45 nA | 250 nA | 40 nA | 150 nA | 50 nA | 40 nA | 
c1ccc2ncccc2c1 [Quinoline] |  | 0.0 nA | 0.0 nA | 0.0 nA | 0.0 nA | 0.0 nA | 10.0 nA | 10.0 nA | 0.0 nA | 900 nA | 2210 nA | 330 nA | 1050 nA | 300 nA | 760 nA | 210 nA | 250 nA | 
c1ccc2nccnc2c1 [Quinoxaline] |  | 0.0 nA | 0.0 nA | 0.0 nA | 0.0 nA | 0.0 nA | 0.0 nA | 0.0 nA | 0.0 nA | 0 nA | 620 nA | 85 nA | 370 nA | 60 nA | 200 nA | 80 nA | 70 nA | 
O=Cc1c[nH]c2ccccc12 [indole-3-carboxyaldehyde] | 0.0 nA (2×) and 5.0 nA (5×) |  |  |  |  |  |  |  |  |  |  |  |  |  |  |  |  | 
